# Test results from patent US20210113501A1, “METHOD OF ADMINISTERING BETA-HYDROXY-BETA-METHYLBUTYRATE (HMB)” (Metabolic Technologies, Inc., priority 2009, published 2021).
# Experiment: Study 2 blood chemistry
# Format: in vivo, human
# Conditions: for Aspartate Aminotransferase / Gamma-glutamyl: in U/L (unit assumed)
# Experimental: Study 2 design. Study 2 was conducted similar to study 1 with the following modifications. In study 2, plasma levels of HMB were measured for 1440 min (24 h) and total urine collection was also performed for measurement of urinary HMB excretion during this period. After the 180 min blood sample, the subjects were allowed to leave the laboratory and were instructed to return to the laboratory for additional blood samples at 360, 720, and 1440 min after the ingestion of the supplement. As in study 1, each subject took each of the treatments with at least a one week washout period between treatments. Samples were again stored frozen at −70° C. for analysis of plasma and urinary HMB concentrations. Pre-ingestion, 180 min and 1440 min blood samples were again assayed for the same measurements already for study 1. Subjects were provided with a standardized lunch after the 180 min blood sampling and instructed to eat this at approximately 240 min post ingestion. Following the 720 min blood sample, subjects were instructed to eat a normal evening meal before 10 pm. Subjects reported back to the laboratory the following morning for the fasted 1440 min blood sample. A urine collection container was provided and subjects collected all urine produced during the experimental 24 h experimental period. The urine was stored refrigerated when not being collected. Urine volumes were measured and samples of the total urine collection were taken and stored frozen at −70° C. until analyzed for HMB.
# The data were analyzed using a crossover design with Proc GLM in SAS. (45) For the timed sampling of plasma HMB a repeated measures polynomial model was used. The model included subject, order, and treatment main effects and time by treatment interaction where appropriate. For other parameters Proc GLM was also used with subject, order, and treatment main effects and the p values are reported for the treatment main effect. Statistical significance was determined for p<0.05 and a trend was determined for 0.05<p<0.10.
compound,measurement,setting,value
"CC(C)(O)CC(=O)O [HMB-Acid Gel Sublingual, 3-hydroxy-3-methylbutyric acid]",A:G Ratio,After (24 h),1.8 ± 0.1
same,Alanine Aminotransferase,After (24 h),16.6 ± 1.8 IU/L
same,Albumin,After (24 h),4.2 ± 0.1 g/dL
same,Alkaline Phosphatase,After (24 h),62.8 ± 6.7 IU/L
same,Blood Urea Nitrogen,After (24 h),15.4 ± 1.1 mg/dL
same,CO2,After (24 h),27.9 ± 0.4 mEq/L
same,Chloride,After (24 h),104.3 ± 0.9 mEq/L
same,Cholesterol Ratio,After (24 h),3.2 ± 0.2
same,Creatinine,After (24 h),1.0 ± 0.1 mg/dL
same,Direct Bilirubin,After (24 h),0.1 ± 0.04 mg/dL
same,Globulin,After (24 h),2.4 ± 0.1 g/dL
same,Glucose,After (24 h),80.8 ± 2.1 mg/dL
same,HDL,After (24 h),51.3 ± 2.8 mg/dL
same,Iron,After (24 h),65.0 ± 12.1 µg/dL
same,Iron Binding Capacity,After (24 h),385.0 ± 29.8 µg/dL
same,Iron Saturation,After (24 h),20.1 ± 4.2%
same,LDL,After (24 h),90.4 ± 6.8 mg/dL
same,Lactate Dehydrogenase,After (24 h),151.8 ± 5.2 IU/L
same,Phosphorus,After (24 h),4.6 ± 0.2 mg/dL
same,Potassium,After (24 h),4.9 ± 0.1 mEq/L
same,Protein,After (24 h),6.6 ± 0.2 g/dL
same,Sodium,After (24 h),142.1 ± 1.1 mEq/L
same,Total Bilirubin,After (24 h),0.5 ± 0.1 mg/dL
same,Total Cholesterol,After (24 h),163.3 ± 9.3 mg/dL
same,Triglycerides,After (24 h),107.6 ± 16.6 mg/dL
same,UIBC,After (24 h),312.0 ± 35.9 µg/dL
same,Uric Acid,After (24 h),4.7 ± 0.3 mg/dL
same,Aspartate Aminotransferase,After (24 h),24.8 ± 2.3
same,Gamma-glutamyl,After (24 h),13.9 ± 1.0
same,A:G Ratio,Before,1.8 ± 0.1
same,Alanine Aminotransferase,Before,15.3 ± 1.5 IU/L
same,Albumin,Before,4.1 ± 0.1 g/dL
same,Alkaline Phosphatase,Before,66.5 ± 7.3 IU/L
same,Blood Urea Nitrogen,Before,15.3 ± 1.7 mg/dL
same,CO2,Before,25.3 ± 0.8 mEq/L
same,Chloride,Before,102.1 ± 0.5 mEq/L
same,Cholesterol Ratio,Before,3.1 ± 0.2
same,Creatinine,Before,1.0 ± 0.1 mg/dL
same,Direct Bilirubin,Before,0.1 ± 0.03 mg/dL
same,Globulin,Before,2.3 ± 0.1 g/dL
same,Glucose,Before,73.0 ± 1.8 mg/dL
same,HDL,Before,52.3 ± 3.1 mg/dL
same,Iron,Before,107.6 ± 13.7 µg/dL
same,Iron Binding Capacity,Before,371.9 ± 31.4 µg/dL
same,Iron Saturation,Before,30.1 ± 5.1%
same,LDL,Before,91.3 ± 5.9 mg/dL
same,Lactate Dehydrogenase,Before,163.8 ± 11.9 IU/L
same,Phosphorus,Before,4.1 ± 0.1 mg/dL
same,Potassium,Before,4.0 ± 0.1 mEq/L
same,Protein,Before,6.5 ± 0.2 g/dL
same,Sodium,Before,138.5 ± 0.6 mEq/L
same,Total Bilirubin,Before,0.6 ± 0.1 mg/dL
same,Total Cholesterol,Before,161.6 ± 9.4 mg/dL
same,Triglycerides,Before,93.1 ± 10.6 mg/dL
same,UIBC,Before,264.3 ± 33.3 µg/dL
same,Uric Acid,Before,4.7 ± 0.3 mg/dL
same,A:G Ratio % Change,Before to After,−1.4%
same,Alanine Aminotransferase % Change,Before to After,9.0%
same,Albumin % Change,Before to After,2.7%
same,Alkaline Phosphatase % Change,Before to After,−5.6%
same,Aspartate Aminotransferase % Change,Before to After,3.7%
same,Blood Urea Nitrogen % Change,Before to After,0.8%
same,CO2 % Change,Before to After,10.4%
same,Chloride % Change,Before to After,2.1%
same,Cholesterol Ratio % Change,Before to After,3.6%
same,Creatinine % Change,Before to After,7.9%
same,Direct Bilirubin % Change,Before to After,−12.8%
same,Gamma-glutamyl % Change,Before to After,0.0%
same,Globulin % Change,Before to After,3.2%
same,Glucose % Change,Before to After,10.6%
same,HDL % Change,Before to After,−1.9%
same,Iron % Change,Before to After,−39.6%
same,Iron Binding Capacity % Change,Before to After,3.5%
same,Iron Saturation % Change,Before to After,−33.2%
same,LDL % Change,Before to After,−1.0%
same,Lactate Dehydrogenase % Change,Before to After,−7.3%
same,Phosphorus % Change,Before to After,11.5%
same,Potassium % Change,Before to After,21.7%
same,Protein % Change,Before to After,2.9%
same,Sodium % Change,Before to After,2.6%
same,Total Bilirubin % Change,Before to After,−13.3%
same,Total Cholesterol % Change,Before to After,1.0%
same,Triglycerides % Change,Before to After,15.6%
same,UIBC % Change,Before to After,18.1%
same,Uric Acid % Change,Before to After,0.8%
same,Aspartate Aminotransferase,Before,23.9 ± 3.2
same,Gamma-glutamyl,Before,13.9±1.2
